Assays:
[1] = target: T1, Recombinant JAK1 (Homo sapiens, UniProt P23458); assay: JAK biochemical assay (LANCE Ultra TR-FRET), JAK1; conditions: recombinant JAK1, TR-FRET; read-out: Biochemical Assay (μM) JAK1
T1 construct: purchased Carna Biosciences
Experimental: (§1) Recombinant JAK1, JAK2, JAK3 and TYK2 (Carna Biosciences) were used to develop biochemical assays in 50 mM HEPES pH 7.5, 1 mM EGTA, 10 mM MgCl2, 2 mM DTT and 0.01% Tween-20. […] The intensity of the light emission is proportional to the level of ULight substrate phosphorylation. Compounds which interfere with JAK enzyme activity show a lesser substrate phosphorylation and values are projected in terms of % inhibition in comparison to vehicle control.

[2] = target: T2, Recombinant JAK2 (Homo sapiens, UniProt O60674); assay: JAK biochemical assay (LANCE Ultra TR-FRET), JAK2; conditions: recombinant JAK2, TR-FRET; read-out: Biochemical Assay (μM) JAK2
T2 construct: purchased Carna Biosciences
T2 sequence (O60674 whole entry): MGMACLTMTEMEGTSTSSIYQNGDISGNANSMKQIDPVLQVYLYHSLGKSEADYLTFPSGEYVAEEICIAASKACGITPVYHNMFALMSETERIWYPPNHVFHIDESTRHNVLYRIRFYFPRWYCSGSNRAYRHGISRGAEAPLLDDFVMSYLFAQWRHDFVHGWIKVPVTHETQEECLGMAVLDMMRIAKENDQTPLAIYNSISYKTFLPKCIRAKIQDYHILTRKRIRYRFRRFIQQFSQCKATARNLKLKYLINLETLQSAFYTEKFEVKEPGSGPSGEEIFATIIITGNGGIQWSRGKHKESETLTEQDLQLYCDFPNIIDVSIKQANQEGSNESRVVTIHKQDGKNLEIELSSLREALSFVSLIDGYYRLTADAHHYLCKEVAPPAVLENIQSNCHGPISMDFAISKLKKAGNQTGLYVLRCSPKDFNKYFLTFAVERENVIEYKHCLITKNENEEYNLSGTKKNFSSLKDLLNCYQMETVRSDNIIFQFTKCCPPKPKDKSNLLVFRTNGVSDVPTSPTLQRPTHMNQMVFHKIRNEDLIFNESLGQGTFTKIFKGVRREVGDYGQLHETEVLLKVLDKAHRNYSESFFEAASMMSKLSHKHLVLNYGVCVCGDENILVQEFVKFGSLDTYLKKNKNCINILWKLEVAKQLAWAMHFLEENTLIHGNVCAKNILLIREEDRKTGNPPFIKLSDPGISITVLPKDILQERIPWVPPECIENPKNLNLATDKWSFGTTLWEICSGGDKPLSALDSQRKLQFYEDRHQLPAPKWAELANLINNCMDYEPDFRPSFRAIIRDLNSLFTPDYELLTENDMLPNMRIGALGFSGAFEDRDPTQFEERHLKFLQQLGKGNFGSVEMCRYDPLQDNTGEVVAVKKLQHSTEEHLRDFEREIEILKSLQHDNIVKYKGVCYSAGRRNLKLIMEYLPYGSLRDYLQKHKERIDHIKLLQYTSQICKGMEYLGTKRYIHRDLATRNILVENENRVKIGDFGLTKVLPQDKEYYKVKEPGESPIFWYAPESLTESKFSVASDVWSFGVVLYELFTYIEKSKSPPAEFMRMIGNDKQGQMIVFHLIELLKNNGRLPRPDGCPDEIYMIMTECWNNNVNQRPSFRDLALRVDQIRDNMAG
Experimental: as §1

[3] = target: T3, Recombinant JAK3 (Homo sapiens, UniProt P52333); assay: JAK biochemical assay (LANCE Ultra TR-FRET), JAK3; conditions: recombinant JAK3, TR-FRET; read-out: Biochemical Assay (μM) JAK3
T3 construct: purchased Carna Biosciences
T3 sequence (P52333 1-1124): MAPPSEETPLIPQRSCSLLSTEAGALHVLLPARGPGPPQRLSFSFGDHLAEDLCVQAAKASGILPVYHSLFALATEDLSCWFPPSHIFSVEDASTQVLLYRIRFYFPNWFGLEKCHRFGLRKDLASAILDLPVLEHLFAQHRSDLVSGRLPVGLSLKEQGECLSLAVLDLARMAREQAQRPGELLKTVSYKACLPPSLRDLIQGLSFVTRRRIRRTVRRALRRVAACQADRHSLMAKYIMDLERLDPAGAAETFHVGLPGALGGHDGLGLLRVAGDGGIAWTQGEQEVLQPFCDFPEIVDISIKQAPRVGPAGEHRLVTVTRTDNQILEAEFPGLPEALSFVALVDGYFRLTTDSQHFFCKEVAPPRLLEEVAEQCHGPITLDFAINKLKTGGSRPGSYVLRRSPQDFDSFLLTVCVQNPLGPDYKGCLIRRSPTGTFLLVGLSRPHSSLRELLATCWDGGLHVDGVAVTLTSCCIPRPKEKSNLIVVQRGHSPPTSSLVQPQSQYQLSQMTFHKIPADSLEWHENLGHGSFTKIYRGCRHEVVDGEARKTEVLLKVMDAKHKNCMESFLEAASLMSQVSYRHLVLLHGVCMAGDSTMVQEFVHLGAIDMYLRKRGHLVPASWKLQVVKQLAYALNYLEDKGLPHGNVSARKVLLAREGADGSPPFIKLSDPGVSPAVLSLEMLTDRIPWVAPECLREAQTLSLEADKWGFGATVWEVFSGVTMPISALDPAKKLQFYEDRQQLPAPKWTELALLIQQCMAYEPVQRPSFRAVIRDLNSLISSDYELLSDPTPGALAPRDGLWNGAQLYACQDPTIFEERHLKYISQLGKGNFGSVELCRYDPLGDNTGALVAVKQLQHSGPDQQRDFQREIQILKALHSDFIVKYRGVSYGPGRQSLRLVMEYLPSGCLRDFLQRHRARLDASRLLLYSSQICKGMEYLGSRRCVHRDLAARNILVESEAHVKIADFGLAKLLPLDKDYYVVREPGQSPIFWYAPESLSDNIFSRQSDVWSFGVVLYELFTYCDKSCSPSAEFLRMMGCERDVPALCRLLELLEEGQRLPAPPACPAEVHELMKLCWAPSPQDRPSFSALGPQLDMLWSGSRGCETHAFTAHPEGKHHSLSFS
Experimental: as §1

[4] = target: T4, Recombinant TYK2 (Homo sapiens, UniProt P29597); assay: JAK biochemical assay (LANCE Ultra TR-FRET), TYK2; conditions: recombinant TYK2, TR-FRET; read-out: Biochemical Assay (μM) TYK2
T4 construct: purchased Carna Biosciences
T4 sequence (P29597 whole entry): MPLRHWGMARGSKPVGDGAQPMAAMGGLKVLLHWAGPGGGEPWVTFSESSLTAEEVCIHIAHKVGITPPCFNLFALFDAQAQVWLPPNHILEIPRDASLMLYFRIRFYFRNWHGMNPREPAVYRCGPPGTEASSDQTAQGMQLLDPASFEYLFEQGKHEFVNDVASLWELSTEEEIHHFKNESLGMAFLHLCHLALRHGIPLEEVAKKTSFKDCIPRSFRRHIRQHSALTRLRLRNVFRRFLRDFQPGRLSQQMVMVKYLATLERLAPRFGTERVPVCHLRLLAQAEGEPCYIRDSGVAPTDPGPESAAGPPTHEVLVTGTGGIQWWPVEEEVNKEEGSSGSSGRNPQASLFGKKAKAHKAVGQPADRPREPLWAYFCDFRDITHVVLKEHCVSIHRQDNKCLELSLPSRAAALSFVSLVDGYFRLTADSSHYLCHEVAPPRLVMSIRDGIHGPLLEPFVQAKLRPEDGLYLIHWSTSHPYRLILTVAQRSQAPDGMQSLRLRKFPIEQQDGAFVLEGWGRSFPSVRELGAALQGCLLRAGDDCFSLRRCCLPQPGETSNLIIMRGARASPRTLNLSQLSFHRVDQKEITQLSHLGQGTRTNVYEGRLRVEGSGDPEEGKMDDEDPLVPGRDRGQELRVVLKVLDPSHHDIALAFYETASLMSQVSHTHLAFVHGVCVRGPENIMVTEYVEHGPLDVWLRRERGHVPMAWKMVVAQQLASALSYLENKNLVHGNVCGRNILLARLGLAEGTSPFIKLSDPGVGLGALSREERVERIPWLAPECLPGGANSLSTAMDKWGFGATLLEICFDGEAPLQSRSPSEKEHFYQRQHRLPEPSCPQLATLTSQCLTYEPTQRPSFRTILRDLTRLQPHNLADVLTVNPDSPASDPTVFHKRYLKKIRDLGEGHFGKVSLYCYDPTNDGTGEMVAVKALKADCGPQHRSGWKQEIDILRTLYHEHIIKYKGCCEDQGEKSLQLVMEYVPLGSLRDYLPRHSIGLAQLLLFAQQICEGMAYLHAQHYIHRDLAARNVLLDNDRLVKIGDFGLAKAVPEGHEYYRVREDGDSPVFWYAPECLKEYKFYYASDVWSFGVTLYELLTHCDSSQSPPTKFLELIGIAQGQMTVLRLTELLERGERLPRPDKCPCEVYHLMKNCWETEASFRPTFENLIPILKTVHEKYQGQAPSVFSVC
Experimental: as §1

T1 sequence (P23458 whole entry): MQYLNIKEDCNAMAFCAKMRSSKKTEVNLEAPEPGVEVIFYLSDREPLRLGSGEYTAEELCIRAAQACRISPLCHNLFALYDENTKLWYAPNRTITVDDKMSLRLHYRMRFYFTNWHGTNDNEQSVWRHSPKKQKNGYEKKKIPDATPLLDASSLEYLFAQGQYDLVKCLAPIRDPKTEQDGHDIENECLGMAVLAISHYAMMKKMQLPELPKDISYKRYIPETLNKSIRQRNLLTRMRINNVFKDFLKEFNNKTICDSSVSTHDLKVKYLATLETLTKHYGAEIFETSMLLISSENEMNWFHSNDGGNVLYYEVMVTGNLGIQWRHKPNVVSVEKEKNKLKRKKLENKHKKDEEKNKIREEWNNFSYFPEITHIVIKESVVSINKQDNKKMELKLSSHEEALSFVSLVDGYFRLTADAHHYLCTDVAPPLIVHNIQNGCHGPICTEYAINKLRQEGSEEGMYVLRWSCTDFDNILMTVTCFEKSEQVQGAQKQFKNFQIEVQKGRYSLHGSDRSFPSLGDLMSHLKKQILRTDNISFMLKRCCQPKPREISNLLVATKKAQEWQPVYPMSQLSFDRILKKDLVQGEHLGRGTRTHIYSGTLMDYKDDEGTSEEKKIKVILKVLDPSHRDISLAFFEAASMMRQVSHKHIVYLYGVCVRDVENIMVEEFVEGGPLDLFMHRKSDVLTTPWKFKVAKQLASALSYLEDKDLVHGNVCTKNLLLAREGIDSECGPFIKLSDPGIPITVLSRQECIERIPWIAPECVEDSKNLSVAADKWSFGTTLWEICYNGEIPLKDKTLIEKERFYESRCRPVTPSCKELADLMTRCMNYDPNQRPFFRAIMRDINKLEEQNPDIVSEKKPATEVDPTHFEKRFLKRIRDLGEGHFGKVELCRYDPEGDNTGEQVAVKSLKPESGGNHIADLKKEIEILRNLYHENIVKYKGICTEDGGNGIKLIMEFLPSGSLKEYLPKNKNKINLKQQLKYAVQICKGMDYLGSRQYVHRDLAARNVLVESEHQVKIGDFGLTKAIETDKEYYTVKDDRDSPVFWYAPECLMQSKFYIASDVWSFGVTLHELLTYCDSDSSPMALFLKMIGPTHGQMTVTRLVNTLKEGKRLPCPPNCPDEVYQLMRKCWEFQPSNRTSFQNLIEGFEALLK

| Structure (SMILES) | IC50 [1] [µM] | IC50 [2] [µM] | IC50 [3] [µM] | IC50 [4] [µM] |
| --- | --- | --- | --- | --- |
| N#CC1CN(C(=O)CNC(=O)n2cc(-c3ccnc4[nH]c(=O)[nH]c34)cn2)C1 [Example 1059, N-(2-(3-cyanoazetidin-1-yl)-2-oxoethyl)-4-(2-oxo-2,3-dihydro-1H-imidazo[4,5-b]pyridin-7-yl)-1H-pyrazole-1-carboxamide] | > 1 | > 1 | > 10 | > 10 |
| N#CC(NC(=O)n1cc(-c2ccnc3[nH]c(=O)[nH]c23)cn1)c1ccccc1 (stereo not shown) [Example 1063, N-(cyano(phenyl)methyl)-4-(2,3-dihydro-2-oxo-1H-imidazo[4,5-b]pyridin-7-yl)-1H-pyrazole-1-carboxamide] | > 0.5 | < 0.5 | > 0.5 | < 0.5 |
| N#CCC(NC(=O)n1cc(-c2ccnc3[nH]cnc23)cn1)C1CCOCC1 (stereo not shown) [Example 1065, N-(2-cyano-1-(tetrahydro-2H-pyran-4-yl)ethyl)-4-(3H-imidazo[4,5-b]pyridin-7-yl)-1H-pyrazole-1-carboxamide] | > 0.5 | < 0.5 | > 0.5 | > 0.5 |
| CCCS(=O)(=O)NC1CCN(C(=O)n2cc(-c3ccnc4[nH]cnc34)cn2)C1 (stereo not shown) [Example 1069, N-(1-(4-(3H-imidazo[4,5-b]pyridin-7-yl)-1H-pyrazole-1-carbonyl)pyrrolidin-3-yl)propane-1-sulfonamide] | > 10 | > 1 | > 0.5 | > 1 |
| N#CC1CN(Cc2ccc(-n3cc(-c4ccnc5[nH]cnc45)cn3)nc2)C1 [Example 1087, 1-((6-(4-(3H-imidazo[4,5-b]pyridin-7-yl)-1H-pyrazol-1-yl)pyridin-3-yl)methyl)azetidine-3-carbonitrile] | > 0.5 | > 1 | > 1 | > 10 |
| N#CC1CN(C(=O)c2ccc(-n3cc(-c4ccnc5[nH]cnc45)cn3)nc2)C1 [Example 1089, 1-(6-(4-(3H-imidazo[4,5-b]pyridin-7-yl)-1H-pyrazol-1-yl)nicotinoyl)azetidine-3-carbonitrile] | > 0.5 | > 0.5 | > 1 | > 1 |
| O=C(NCC(F)(F)F)n1cc(-c2ccnc3[nH]c(C4CC4)nc23)cn1 [Example 1096, 4-(2-cyclopropyl-3H-imidazo[4,5-b]pyridin-7-yl)-N-(2,2,2-trifluoroethyl)-1H-pyrazole-1-carboxamide] | > 10 | > 1 | > 1 | > 10 |
| CC(=O)N1CCC(c2nc3c(-c4cnn(C(=O)NCC(F)(F)F)c4)ccnc3[nH]2)CC1 [Example 1098, 4-(2-(1-acetylpiperidin-4-yl)-3H-imidazo[4,5-b]pyridin-7-yl)-N-(2,2,2-trifluoroethyl)-1H-pyrazole-1-carboxamide] | > 1 | > 1 | > 1 | > 10 |
| N#CCc1ccc(-n2cc(-c3ccnc4[nH]cnc34)cn2)cc1F [Example 1104, 2-(4-(4-(3H-imidazo[4,5-b]pyridin-7-yl)-1H-pyrazol-1-yl)-2-fluorophenyl)acetonitrile] | > 1 | < 0.5 | < 0.5 | > 1 |
| COc1cc(-n2cc(-c3ccnc4[nH]cnc34)cn2)ccc1CC#N [Example 1105, 2-(4-(4-(3H-imidazo[4,5-b]pyridin-7-yl)-1H-pyrazol-1-yl)-2-methoxyphenyl)acetonitrile] | > 1 | > 0.5 | > 0.5 | > 10 |

Now from value to molecule:

| IC50 [1] [µM] | IC50 [2] [µM] | IC50 [3] [µM] | IC50 [4] [µM] | Structure (SMILES) |
| --- | --- | --- | --- | --- |
| < 0.5 | < 0.5 | < 0.5 | < 0.5 | N#CCC(NC(=O)n1cc(-c2ccnc3[nH]c(=O)[nH]c23)cn1)C1CCOCC1 (stereo not shown) [Example 1062, N-(2-cyano-1-(tetrahydro-2H-pyran-4-yl)ethyl)-4-(2,3-dihydro-2-oxo-1H-imidazo[4,5-b]pyridin-7-yl)-1H-pyrazole-1-carboxamide] |
| > 10 | > 1 | > 1 | > 10 | N#Cc1ccc(-n2cc(-c3ccnc4[nH]cnc34)cn2)nc1 [Example 1079, 6-(4-(3H-imidazo[4,5-b]pyridin-7-yl)-1H-pyrazol-1-yl)pyridine-3-carbonitrile] |
| > 0.5 | > 0.5 | < 0.5 | > 1 | OCc1ccc(-n2cc(-c3ccnc4[nH]cnc34)cn2)nc1 [Example 1083, (6-(4-(3H-imidazo[4,5-b]pyridin-7-yl)-1H-pyrazol-1-yl)pyridin-3-yl)methanol] |
| > 1 | > 1 | > 1 | > 10 | c1cc(-c2cnn(-c3ccc(CN4CCOCC4)cn3)c2)c2nc[nH]c2n1 [Example 1085, 7-(1-(5-(morpholinomethyl)pyridin-2-yl)-1H-pyrazol-4-yl)-3H-imidazo[4,5-b]pyridine] |
| > 1 | > 1 | > 1 | > 1 | N#CCNC(=O)c1ccc(-n2cc(-c3ccnc4[nH]cnc34)cn2)nc1 [Example 1088, 6-(4-(3H-imidazo[4,5-b]pyridin-7-yl)-1H-pyrazol-1-yl)-N-(cyanomethyl)pyridine-3-carboxamide] |
| > 0.5 | > 1 | > 0.5 | > 10 | N#CCC(=O)NCc1ccc(-n2cc(-c3ccnc4[nH]cnc34)cn2)nc1 [Example 1091, N-((6-(4-(3H-imidazo[4,5-b]pyridin-7-yl)-1H-pyrazol-1-yl)pyridin-3-yl)methyl)-2-cyanoacetamide] |
| > 1 | > 1 | > 1 | > 1 | O=C(Cc1ccc(-n2cc(-c3ccnc4[nH]cnc34)cn2)nc1)NCC(F)(F)F [Example 1092, 2-(6-(4-(3H-imidazo[4,5-b]pyridin-7-yl)-1H-pyrazol-1-yl)pyridin-3-yl)-N-(2,2,2-trifluoroethyl)acetamide] |
| > 0.5 | < 0.5 | < 0.5 | > 10 | N#CCNC(=O)c1cnc(-n2cc(-c3ccnc4[nH]cnc34)cn2)nc1 [Example 1093, 2-(4-(3H-imidazo[4,5-b]pyridin-7-yl)-1H-pyrazol-1-yl)-N-(cyanomethyl)pyrimidine-5-carboxamide] |
| < 1 | < 1 | < 1 | > 10 | CCOc1nc2c(-c3cnn(C(=O)NCC(F)(F)F)c3)ccnc2[nH]1 [Example 1095, 4-(2-ethoxy-3H-imidazo[4,5-b]pyridin-7-yl)-N-(2,2,2-trifluoroethyl)-1H-pyrazole-1-carboxamide] |
| > 10 | > 0.5 | > 10 | > 1 | COc1cc(-c2nc3c(-c4cnn(C5COCCC5C#N)c4)ccnc3[nH]2)ccc1Cl (stereo not shown) [Example 1097, 3-(4-(2-(4-chloro-3-methoxyphenyl)-3H-imidazo[4,5-b]pyridin-7-yl)-1H-pyrazol-1-yl)-tetrahydro-2H-pyran-4-carbonitrile] |
| > 0.1 | > 0.5 | > 0.1 | > 1 | N#CC(c1ccc(-n2cc(-c3ccnc4[nH]cnc34)cn2)nc1)C1CC1 (stereo not shown) [Example 1110, 2-(6-(4-(3H-imidazo[4,5-b]pyridin-7-yl)-1H-pyrazol-1-yl)pyridin-3-yl)-2-cyclopropylacetonitrile] |
| > 0.5 | > 0.5 | > 0.5 | > 1 | CS(=O)(=O)N1CC(C(C#N)c2ccc(-n3cc(-c4ccnc5[nH]cnc45)cn3)nc2)C1 (stereo not shown) [Example 1115, 2-(6-(4-(3H-imidazo[4,5-b]pyridin-7-yl)-1H-pyrazol-1-yl)pyridin-3-yl)-2-(1-(methylsulfonyl)azetidin-3-yl)acetonitrile] |

From US12516056B2, “Compounds for inhibition of janus kinase 1” (MANKIND PHARMA LTD., priority 2019, dated 2026)
